Assay results taken from PubChem BioAssay AID852 (PCMD, 2007).

molecular target: Coagulation factor XII (Homo sapiens) (UniProt P00748); assay: human FXIIa protease inhibitors, dose response, biochemical, confirmation of 1536-well hits (AID 852); conditions: purified human plasma FXIIa, fluorogenic AMC substrate, 384-well, 2 h
Sequence (P00748 20-372 limits assumed): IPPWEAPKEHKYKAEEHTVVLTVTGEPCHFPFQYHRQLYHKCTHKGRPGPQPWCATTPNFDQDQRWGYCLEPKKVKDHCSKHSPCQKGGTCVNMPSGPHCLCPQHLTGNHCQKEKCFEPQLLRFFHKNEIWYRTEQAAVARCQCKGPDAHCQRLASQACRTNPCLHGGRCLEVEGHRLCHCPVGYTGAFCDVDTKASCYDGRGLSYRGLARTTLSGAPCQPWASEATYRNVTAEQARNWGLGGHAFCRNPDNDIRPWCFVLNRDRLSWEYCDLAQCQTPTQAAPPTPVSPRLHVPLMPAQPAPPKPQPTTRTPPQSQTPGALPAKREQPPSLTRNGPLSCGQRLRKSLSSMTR
Sequence (P00748 373-615 limits assumed): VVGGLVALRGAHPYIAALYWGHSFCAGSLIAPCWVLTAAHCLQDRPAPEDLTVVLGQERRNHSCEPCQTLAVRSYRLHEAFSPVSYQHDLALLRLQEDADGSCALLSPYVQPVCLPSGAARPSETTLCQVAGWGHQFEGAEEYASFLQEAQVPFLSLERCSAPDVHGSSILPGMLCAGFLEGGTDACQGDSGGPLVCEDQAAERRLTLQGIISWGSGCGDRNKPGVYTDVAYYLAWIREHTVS

IC50, active:
Cc1ccc(C(=O)n2nc(-c3cccnc3)nc2N)cc1 0.796 µM
O=C(Oc1ccc2c3c(c(=O)oc2c1)CCC3)c1ccco1 6.22 µM
O=C(Oc1ccc(Cl)c2cccnc12)c1ccco1 21.6 µM
